Data taken from patent publication US7214668B2, “Phosphonic acid based prodrugs of PMEA and its analogues” (Metabasis Therapeutics, Inc., priority 2002, dated 2007).

Experiments:
[1] = test system: human liver microsomes; experiment: Kinetics of activation of Compound 4 to PMEA by human liver microsomes; type: in vitro ADME; conditions: 2 mg/mL human liver microsomes, 10 minutes, 37° C.
Experimental: The kinetics of activation of Compound 4 by the microsomal fraction of human liver were determined.
Human liver microsomes were purchased from In Vitro Technologies (IVT). Lot 1011 was prepared from a pool of 10 male donors with documented CYP3A4 activity (testosterone 6β-hydroxylation rate of 5.7 nmol/mg/min; IVT). […] Following a 2-minute preincubation at 37° C., reaction mixtures containing 100 mM KH2PO4, 2 mg/mL human liver microsomes, and 0, 30, 60, 100, 200 and 400 μM Compound 4 were started by addition of NADPH to 2 mM. The reaction was carried out for 10 minutes in an Eppendorf Thermomixer 5436 at 37° C., speed 6. […] Reactions were terminated by the addition of 1.5 volumes of methanol and extracts were pelleted at 14,000 rpm in an Eppendorf microfuge for 20 minutes. The supernatants (200 μl) were evaporated under vacuum and heat to dryness before resuspending in 80 μL buffer A (see below). Spiked standards of 9-[2-(phosophonomethoxy)ethyl]adenine, (PMEA, lot 980397, Metabasis Therapeutics) were prepared in the reaction mixture, and quenched and processed in an identical fashion. The ion-pairing buffer (Buffer A) consisted of 10 mM ammonium phosphate and 2.5 mM octyltriethylammonium phosphate, pH 5.5. After resuspension, samples were analyzed for PMEA by reverse phase HPLC. […]

[2] = test system: freshly isolated rat hepatocytes; conditions: 250 μM prodrug
Experimental: PMEA prodrugs were tested.
Hepatocytes were prepared from fed Sprague-Dawley rats (250–300 g) according to the procedure of Berry and Friend (Berry, M. N. Friend, D. S., J. Cell Biol. 43:506–520 (1969)) as modified by Groen (Groen, A. K. et al., Eur. J. Biochem 122:87–93 (1982)). Hepatocytes (60 mg/ml wet weight, >85% trypan blue viability) were incubated in 2 ml of krebs-bicarbonate buffer containing 20 mM glucose, and 1 mg/ml BSA for 4 hours in the presence of 250 μM PMEA prodrugs (from 25 mM stock solutions of prodrugs in methanol). At appropriate time points throughout the incubation (0, 1, 2, 4 hours), 400-μl aliquots of the cell suspension were taken and centrifuged through a silicon/mineral oil layer into 10% perchloric acid to extract intracellular nucleotides. The acidic cell extracts were neutralized with 0.3 volumes of 3M KOH/3M […] before evaluating PMEApp levels by ion exchange HPLC (Hewlett Packard 1050) using a Whatman Partisphere SAX (5 μm, 4.6×125 mm) column. Samples were loaded onto the column in 0.3M-ammonium phosphate buffer pH 3.5 and eluted from the column with a gradient to 0.8 M ammonium phosphate pH 3.5.

[3] = test system: human liver microsomes; experiment: In vitro activation of enantiomers in human liver microsomes (glutathione by-product capture); type: in vitro ADME; conditions: 2 mg/mL human liver microsomes, glutathione adduct of by-product quantified
Experimental: The two enantiomers were compared for activation in human liver microsomes.
Human liver microsomes were purchased from In Vitro Technologies (IVT1032). […] The reactions were initiated by addition of NADPH following a 2-minute preincubation. Reactions were quenched with 60% methanol at 0, 2.5, 5, and 7.5 minutes. L-Glutamyl-L-(S-(3-oxo-3-(3-chlorophenyl)propyl)cysteinylglycine, a glutathione adduct of the by-product of prodrug activation, 3-Cl-phenyl vinyl ketone, was quantified following extraction of the reaction with 1.5 volumes of methanol. The extracted samples were centrifuged at 14,000 rpm in an Eppendorf microfuge and the supernatant analyzed by HPLC for L-Glutamyl-L-(S-(3-oxo-3-(3-chlorophenyl)propyl)cysteinylglycine content. Spiked L-Glutamyl-L-(S-(3-oxo-3-(3-chlorophenyl)propyl)cysteinylglycine (lot 20000127) standards (1–30 μM) were prepared in 2 mg/ml microsomes under reaction conditions and then quenched and processed in an identical fashion to unknown samples. For HPLC analysis, the loading mobile phase buffer (Buffer A) consisted of a 9:1 ratio (v/v) of 20 mM potassium phosphate, pH 6.2 and acetonitrile. Extract (100 uL) was injected onto a Beckman Ultrasphere ODS column (4.6×250 […], part#235329). […] The elution of L-Glutamyl-L-(S-(3-oxo-3-(3-chlorophenyl)propyl)cysteinylglycine (retention time 10.4 minutes) was monitored at 245 nm.

## Nc1ncnc2c1ncn2CCOCP1(=O)OCCC(c2cccc(Cl)c2)O1 (racemic) [Compound 4]
[1]
  Km: 11 µM
[2]
  Rat Hepatocytes, PMEApp formation, 250 μM, AUC 0–4 h: 109.3 nmol·h/g
[3]; 25 μM
  Activation (25 μM): 38 pmol/mg/min
[3]; 250 μM
  Activation (250 μM): 283 pmol/mg/min
